Consider 17 molecules from patent US12145927B2 (BRISTOL-MYERS SQUIBB COMPANY, priority 2018, dated 2024).

pIC50: −log10 of the molar value.

As usually defined, the pIC50 is −log10 of the IC50, conventionally taken in molar units.

In assay [1] the target is T1, indoleamine 2,3-dioxygenase (IDO) (Homo sapiens, UniProt P14902).
T1 construct: replaced with media containing IFNγ (#285-IF/CF, R&D Systems) at a final concentration of 25 ng/mL; endogenous in cells; host or cells: HeLa (ATCC CCL-2), IFNγ-stimulated
As to the kind of experiment: HeLa cell-based indoleamine 2,3-dioxygenase (IDO) assay (IDO1 HeLa). Particulars: HeLa cells, IFNγ 25 ng/mL, 48 hour incubation; kynurenine by absorbance at 480 nm. How it is done: Assessment of inhibitor activity in HeLa cell-based indoleamine 2,3-dioxygenase (IDO) assay:
HeLa (ATCC® CCL-2) cells were obtained from the ATCC® and cultured in Dulbecco's Modified Eagle Medium supplemented with 4.5 g/L glucose, […] (#10-013-CV, Corning), 2 mM L-alanyl-L-glutamine dipeptide (#35050-061, Gibco), 100U/mL penicillin, 100 μg/mL streptomycin (#SV30010, HyClone) and 10% fetal bovine serum (#SH30071.03 HyClone). Cells were maintained in a humidified incubator at 37° C. in 5% CO2.
IDO activity was assessed as a function of kynurenine production as follows: HeLa cells were seeded in a 96-well culture plate at a density of 5,000 cells/well and allowed to equilibrate overnight. After 24 hours, the media was aspirated and replaced with media containing IFNγ (#285-IF/CF, R&D Systems) at a final concentration of 25 ng/mL. A serial dilution of each test compound was added to the cells in a total volume of 200 μL of culture medium. After a further 48 hour incubation, 170 μL of supernatant was transferred from each well to a fresh 96-well plate. 12.1 μL of 6.1N trichloroacetic acid (#T0699, Sigma-Aldrich) was added to each well and mixed, followed by incubation at 65° C. for 20 minutes to hydrolyze N-formylkynurenine, the product of indoleamine 2,3-dioxygenase, to kynurenine. The reaction mixture was then centrifuged for 10 mins at 500×g to sediment the precipitate. 100 μL of the supernatant was transferred from each well to a fresh 96-well plate. 100 μl of 2% (w/v) p-dimethylaminobenzaldehyde (#15647-7, Sigma-Aldrich) in acetic acid (#A6283, Sigma-Aldrich) was added to each well mixed and incubated at RT for 20 mins. Kynurenine concentrations were determined by measuring absorbance at 480 nm and calibrating against an L-kynurenine (#K8625, Sigma-Aldrich) standard curve using a SPECTRAMAX® M2e microplate reader (Molecular Devices). The percentage activity at each inhibitor concentration was determined and IC50 values assessed using nonlinear regression.

The next assay deals with T2, human IDO1 (Homo sapiens, UniProt P14902).
T2 construct: expressed in transfected cells
Nature of the assay: IDO inhibition assay in human IDO1/HEK293 cells (IDO1 HEK Human). The class given is cell-based. Particulars: HEK293 cells stably expressing human IDO1; 20 hours incubation; absorbance at 490 nm after Ehrlich reagent. The method in brief: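 HEK293 clones stably expressing human IDO1 (10,000 cells/well, phenol red-free RPMI, 10% FBS) were treated with compound for 20 hours at 37° C. After 0.2% TCA and 30 min at 50° C., kynurenine was read with Ehrlich reagent at 490 nm. IC50 was normalised to DMSO (0%) and 500 nM reference standard (100%).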

T1 sequence (P14902 whole entry): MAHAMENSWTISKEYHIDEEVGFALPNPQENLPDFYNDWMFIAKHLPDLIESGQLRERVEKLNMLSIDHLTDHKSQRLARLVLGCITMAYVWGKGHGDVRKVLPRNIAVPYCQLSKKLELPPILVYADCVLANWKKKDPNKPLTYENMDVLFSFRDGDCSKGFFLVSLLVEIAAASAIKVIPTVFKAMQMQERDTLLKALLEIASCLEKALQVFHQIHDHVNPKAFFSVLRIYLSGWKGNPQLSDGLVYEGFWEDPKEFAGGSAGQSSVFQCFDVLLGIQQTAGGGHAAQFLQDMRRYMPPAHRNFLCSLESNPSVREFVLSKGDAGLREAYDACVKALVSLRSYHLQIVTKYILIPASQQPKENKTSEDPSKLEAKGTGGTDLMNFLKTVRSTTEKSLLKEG
T2 sequence (P14902 whole entry): as above

Take `O=C(Nc1ccc(Cl)cc1F)Nc1cc(-c2ccccc2-c2nnn[nH]2)cc2c1OCC=CC2c1ccccc1` (racemic) [Example 105, (+/−)-1-(7-(2-(1H-tetrazol-5-yl)phenyl)-5-phenyl-2,5-dihydrobenzo[b]oxepin-9-yl)-3-(4-chloro-2-fluorophenyl)urea]: the pIC50 in assay [1] is 7.26. For `Cc1ccc(NC(=O)Nc2cc(-c3ccccc3-c3nnn[nH]3)cc3c2OCCCC3C2CC2)cc1` (single isomer, unassigned) [36 (En. 2), 1-(7-(2-(1H-tetrazol-5-yl)phenyl)-5-cyclopropyl-2,3,4,5-tetrahydrobenzo[b]oxepin-9-yl)-3-(p-tolyl)urea], the pIC50 on human IDO1 is 8.62; in assay [1] it was 8.44. For `COCC(CC(=O)O)c1cc(Nc2ccc(C#N)cc2)c2c(c1)C(C1CC1)CCCO2` (single isomer, unassigned) [131 (dia. 2), 3-(9-(4-Cyanophenylamino)-5-cyclopropyl-2,3,4,5-tetrahydrobenzo[b]oxepin-7-yl)-4-methoxybutanoic acid], in that order: 8.70 and 8.68. Consider `Cc1ccc(NC(=O)Nc2cc(-c3ccccc3-c3nnn[nH]3)cc3c2OC[C@@H](C)C[C@H]3c2ccccc2)cc1` (racemic) [Example 109, (+/−)-1-((cis)-7-(2-(1H-tetrazol-5-yl)phenyl)-3-methyl-5-phenyl-2,3,4,5-tetrahydrobenzo[b]oxepin-9-yl)-3-(p-tolyl)urea], for which, in assay [1], the negative logarithm of the IC50 (pIC50) was 8.23.

Consider `Cc1ccc(NC(=O)Nc2cc(-c3ccccc3-c3noc(=O)[nH]3)cc3c2OCCCC3c2ccccc2)cc1` (single isomer, unassigned) [Example 67, 1-(7-(2-(5-oxo-4,5-dihydro-1,2,4-oxadiazol-3-yl)phenyl)-5-phenyl-2,3,4,5-tetrahydrobenzo[b]oxepin-9-yl)-3-(p-tolyl)urea], for which the results for the pIC50 (on human IDO1; in assay [1]) were 8.96 and 9.00, respectively. For `Cc1ccc(NC(=O)Nc2cc(-c3ccccc3-c3nnn[nH]3)cc3c2OCCCC3C(C)C)cc1` (single isomer, unassigned) [24 (En. 1), 1-(7-(2-(1H-tetrazol-5-yl)phenyl)-5-isopropyl-2,3,4,5-tetrahydrobenzo[b]oxepin-9-yl)-3-(p-tolyl)urea] the same measures were 9.01 and 7.54. In assay [1], `Fc1cc(Nc2cc(-c3ccccc3-c3nnn[nH]3)cc3c2OCCCC3c2ccccc2)ccc1Cl` (single isomer, unassigned) [Example 72, 7-(2-(1H-tetrazol-5-yl)phenyl)-N-(4-chloro-3-fluorophenyl)-5-phenyl-2,3,4,5-tetrahydrobenzo[b]oxepin-9-amine] showed a pIC50 of 7.62. Consider `Cc1ccc(NC(=O)Nc2cc(-c3ccccc3-c3nn[nH]n3)cc3c2OCCCC3c2ccccc2)cc1` (centres unmarked) [Example 1, 1-(7-(2-(1H-tetrazol-5-yl)phenyl)-5-phenyl-2,3,4,5-tetrahydrobenzo[b]oxepin-9-yl)-3-(p-tolyl)urea], for which the pIC50 at human IDO1 is 7.73; in assay [1], 7.86. As to `Cc1ccc(NC(=O)Nc2cc(-c3ccccc3-c3nn[nH]n3)cc3c2OCC=CC3c2ccccc2)cc1` (racemic) [Example 87, (+/−)-1-(7-(2-(1H-tetrazol-5-yl)phenyl)-5-phenyl-2,5-dihydrobenzo[b]oxepin-9-yl)-3-(p-tolyl)urea], the pIC50 in assay [1] is 7.96.

Consider `CC1=CC(c2ccccc2)c2cc(-c3ccccc3-c3nnn[nH]3)cc(NC(=O)Nc3ccc(C)cc3)c2OC1` (racemic) [Example 92, (+/−)-1-(7-(2-(1H-tetrazol-5-yl)phenyl)-3-methyl-5-phenyl-2,5-dihydrobenzo[b]oxepin-9-yl)-3-(p-tolyl)urea], for which the pIC50 in assay [1] was 8.14. The pIC50 values of the last two molecules are within 0.2 log units of each other. As to `Cc1ccc(NC(=O)Nc2cc(-c3ccccc3-c3nnn[nH]3)cc3c2OCCCC3C(C)C)cc1` (single isomer, unassigned) [24 (En. 2), 1-(7-(2-(1H-tetrazol-5-yl)phenyl)-5-isopropyl-2,3,4,5-tetrahydrobenzo[b]oxepin-9-yl)-3-(p-tolyl)urea], the pIC50 was 8.20 on human IDO1 and 6.79 in assay [1]. For `Cc1ccc(NC(=O)Nc2cc(-c3ccccc3-c3nnn[nH]3)cc3c2OCC(F)(F)CC3c2ccccc2)cc1` (racemic) [Example 110, (+/−) 1-(7-(2-(1H-tetrazol-5-yl)phenyl)-3,3-difluoro-5-phenyl-2,3,4,5-tetrahydrobenzo[b]oxepin-9-yl)-3-(p-tolyl)urea], in that order: 7.30 and 7.61. In assay [1], `Cc1ccc(NC(=O)Nc2cc(-c3cc(F)ccc3C(=O)O)cc3c2OCCCC3c2ccccc2)cc1` (racemic) [Example 108, (+/−)-4-fluoro-2-(5-phenyl-9-(3-(p-tolyl)ureido)-2,3,4,5-tetrahydrobenzo[b]oxepin-7-yl)benzoic acid] gave a negative logarithm of the IC50 (pIC50) of 6.79. Still for that read-out and setting: as for `O=C(Nc1ccc(Br)cc1)Nc1cc(-c2ccccc2-c2nnn[nH]2)cc2c1OCC=CC2c1ccccc1` (racemic) [Example 106, (+/−)-1-(7-(2-(1H-tetrazol-5-yl)phenyl)-5-phenyl-2,5-dihydrobenzo[b]oxepin-9-yl)-3-(4-bromophenyl)urea], the figure is 7.52. With `Cc1ccc(NC(=O)Nc2cc(-c3ccccc3-c3nnn[nH]3)cc3c2OCCCC3C2CC2)cc1` (single isomer, unassigned) [36 (En. 1), 1-(7-(2-(1H-tetrazol-5-yl)phenyl)-5-cyclopropyl-2,3,4,5-tetrahydrobenzo[b]oxepin-9-yl)-3-(p-tolyl)urea], the pIC50 against human IDO1 is 7.98; in assay [1], 7.83.

Consider `Cc1ccc(-c2nnn[nH]2)c(-c2cc(Nc3ccc4nc(C)sc4c3)c3c(c2)C(c2ccccc2)CCCO3)c1` (single isomer, unassigned) [Example 74, 2-methyl-N-(7-(5-methyl-2-(1H-tetrazol-5-yl)phenyl)-5-phenyl-2,3,4,5-tetrahydrobenzo[b]oxepin-9-yl)benzo[d]thiazol-6-amine], for which the values for the pIC50 (against human IDO1; in assay [1]) were 8.11 and 8.29, respectively. In assay [1], `CCc1ccc(NC(=O)Nc2cc(-c3ccccc3-c3nnn[nH]3)cc3c2OCC=CC3CCC(F)(F)F)cc1` (racemic) [Example 107, (+/−)-1-(7-(2-(1H-tetrazol-5-yl)phenyl)-5-(3,3,3-trifluoropropyl)-2,5-dihydrobenzo[b]oxepin-9-yl)-3-(4-ethylphenyl)urea] showed a pIC50 of 7.84.
